Data reported in ChEMBL document CHEMBL2086231, “Novel pleuromutilin derivatives as antibacterial agents: synthesis, biological evaluation and molecular docking studies” (2012).
≈ marks a conversion by molar mass, not a printed value.

Each compound was assayed on Staphylococcus aureus (assay: Antibacterial activity against methicillin-sensitive Staphylococcus aureus isolate cpu0211 after 18 to 20 hrs by agar dilution method).
Type: functional

Structure (SMILES) | MIC [µg/mL]
C=C[C@]1(C)C[C@@H](OC(=O)CSCc2csc(NC(=O)CN(CC)CC)n2)[C@]2(C)[C@H](C)CC[C@]3(CCC(=O)[C@H]32)[C@@H](C)[C@@H]1O | 1 (≈ 1.61 µM)
C=C[C@]1(C)C[C@@H](OC(=O)CSCc2csc(NC(=O)CN(CCC)CCC)n2)[C@]2(C)[C@H](C)CC[C@]3(CCC(=O)[C@H]32)[C@@H](C)[C@@H]1O | 0.5 (≈ 0.772 µM)

These compounds were tested on Staphylococcus aureus (assay: Antibacterial activity against methicillin-sensitive Staphylococcus aureus isolate cpu0587 after 18 to 20 hrs by agar dilution method).
Type: functional

Structure (SMILES) | MIC [µg/mL]
C=C[C@]1(C)C[C@@H](OC(=O)CSCc2csc(NC(=O)CN(CC)CC)n2)[C@]2(C)[C@H](C)CC[C@]3(CCC(=O)[C@H]32)[C@@H](C)[C@@H]1O | 8 (≈ 12.9 µM)
C=C[C@]1(C)C[C@@H](OC(=O)CSCc2csc(NC(=O)CN(CCC)CCC)n2)[C@]2(C)[C@H](C)CC[C@]3(CCC(=O)[C@H]32)[C@@H](C)[C@@H]1O | 0.5 (≈ 0.772 µM)

The compounds below were run on Staphylococcus aureus (assay: Antibacterial activity against methicillin-sensitive Staphylococcus aureus isolate cpu1044 after 18 to 20 hrs by agar dilution method).
Type: functional

Structure (SMILES) | MIC [µg/mL]
C=C[C@]1(C)C[C@@H](OC(=O)CSCc2csc(NC(=O)CN(CC)CC)n2)[C@]2(C)[C@H](C)CC[C@]3(CCC(=O)[C@H]32)[C@@H](C)[C@@H]1O | 1 (≈ 1.61 µM)
C=C[C@]1(C)C[C@@H](OC(=O)CSCc2csc(NC(=O)CN(CCC)CCC)n2)[C@]2(C)[C@H](C)CC[C@]3(CCC(=O)[C@H]32)[C@@H](C)[C@@H]1O | 0.5 (≈ 0.772 µM)

What follows are compounds tested on Staphylococcus aureus (assay: Antibacterial activity against methicillin-sensitive Staphylococcus aureus isolate cpu1344 after 18 to 20 hrs by agar dilution method).
Type: functional

Structure (SMILES) | MIC [µg/mL]
C=C[C@]1(C)C[C@@H](OC(=O)CSCc2csc(NC(=O)CN(CC)CC)n2)[C@]2(C)[C@H](C)CC[C@]3(CCC(=O)[C@H]32)[C@@H](C)[C@@H]1O | 0.25 (≈ 0.403 µM)
C=C[C@]1(C)C[C@@H](OC(=O)CSCc2csc(NC(=O)CN(CCC)CCC)n2)[C@]2(C)[C@H](C)CC[C@]3(CCC(=O)[C@H]32)[C@@H](C)[C@@H]1O | 1 (≈ 1.54 µM)

What follows are compounds tested on Staphylococcus aureus (assay: Antibacterial activity against methicillin-resistant Staphylococcus aureus isolate cpu0446 after 18 to 20 hrs by agar dilution method).
Type: functional

Structure (SMILES) | MIC [µg/mL]
C=C[C@]1(C)C[C@@H](OC(=O)CSCc2csc(NC(=O)CN(CC)CC)n2)[C@]2(C)[C@H](C)CC[C@]3(CCC(=O)[C@H]32)[C@@H](C)[C@@H]1O | 0.5 (≈ 0.807 µM)
C=C[C@]1(C)C[C@@H](OC(=O)CSCc2csc(NC(=O)CN(CCC)CCC)n2)[C@]2(C)[C@H](C)CC[C@]3(CCC(=O)[C@H]32)[C@@H](C)[C@@H]1O | 0.5 (≈ 0.772 µM)

Each compound was assayed on Staphylococcus aureus (assay: Antibacterial activity against methicillin-resistant Staphylococcus aureus isolate cpu0887 after 18 to 20 hrs by agar dilution method).
Type: functional

Structure (SMILES) | MIC [µg/mL]
C=C[C@]1(C)C[C@@H](OC(=O)CSCc2csc(NC(=O)CN(CC)CC)n2)[C@]2(C)[C@H](C)CC[C@]3(CCC(=O)[C@H]32)[C@@H](C)[C@@H]1O | 0.25 (≈ 0.403 µM)
C=C[C@]1(C)C[C@@H](OC(=O)CSCc2csc(NC(=O)CN(CCC)CCC)n2)[C@]2(C)[C@H](C)CC[C@]3(CCC(=O)[C@H]32)[C@@H](C)[C@@H]1O | 0.5 (≈ 0.772 µM)

These compounds were tested on Staphylococcus aureus (assay: Antibacterial activity against methicillin-resistant Staphylococcus aureus isolate cpu1098 after 18 to 20 hrs by agar dilution method).
Type: functional

Structure (SMILES) | MIC [µg/mL]
C=C[C@]1(C)C[C@@H](OC(=O)CSCc2csc(NC(=O)CN(CC)CC)n2)[C@]2(C)[C@H](C)CC[C@]3(CCC(=O)[C@H]32)[C@@H](C)[C@@H]1O | 0.5 (≈ 0.807 µM)
C=C[C@]1(C)C[C@@H](OC(=O)CSCc2csc(NC(=O)CN(CCC)CCC)n2)[C@]2(C)[C@H](C)CC[C@]3(CCC(=O)[C@H]32)[C@@H](C)[C@@H]1O | 1 (≈ 1.54 µM)

Each compound was assayed on Staphylococcus aureus (assay: Antibacterial activity against methicillin-resistant Staphylococcus aureus isolate cpu3256 after 18 to 20 hrs by agar dilution method).
Type: functional

Structure (SMILES) | MIC [µg/mL]
C=C[C@]1(C)C[C@@H](OC(=O)CSCc2csc(NC(=O)CN(CC)CC)n2)[C@]2(C)[C@H](C)CC[C@]3(CCC(=O)[C@H]32)[C@@H](C)[C@@H]1O | 2 (≈ 3.23 µM)
C=C[C@]1(C)C[C@@H](OC(=O)CSCc2csc(NC(=O)CN(CCC)CCC)n2)[C@]2(C)[C@H](C)CC[C@]3(CCC(=O)[C@H]32)[C@@H](C)[C@@H]1O | 1 (≈ 1.54 µM)

The compounds below were run on Staphylococcus epidermidis (assay: Antibacterial activity against methicillin-sensitive Staphylococcus epidermidis isolate cpu0315 after 18 to 20 hrs by agar dilution method).
Type: functional

Structure (SMILES) | MIC [µg/mL]
C=C[C@]1(C)C[C@@H](OC(=O)CSCc2csc(NC(=O)CN(CC)CC)n2)[C@]2(C)[C@H](C)CC[C@]3(CCC(=O)[C@H]32)[C@@H](C)[C@@H]1O | 0.25 (≈ 0.403 µM)
C=C[C@]1(C)C[C@@H](OC(=O)CSCc2csc(NC(=O)CN(CCC)CCC)n2)[C@]2(C)[C@H](C)CC[C@]3(CCC(=O)[C@H]32)[C@@H](C)[C@@H]1O | 8 (≈ 12.3 µM)

What follows are compounds tested on Staphylococcus epidermidis (assay: Antibacterial activity against methicillin-sensitive Staphylococcus epidermidis isolate cpu0347 after 18 to 20 hrs by agar dilution method).
Type: functional

Structure (SMILES) | MIC [µg/mL]
C=C[C@]1(C)C[C@@H](OC(=O)CSCc2csc(NC(=O)CN(CC)CC)n2)[C@]2(C)[C@H](C)CC[C@]3(CCC(=O)[C@H]32)[C@@H](C)[C@@H]1O | 0.25 (≈ 0.403 µM)
C=C[C@]1(C)C[C@@H](OC(=O)CSCc2csc(NC(=O)CN(CCC)CCC)n2)[C@]2(C)[C@H](C)CC[C@]3(CCC(=O)[C@H]32)[C@@H](C)[C@@H]1O | 0.5 (≈ 0.772 µM)

What follows are compounds tested on Staphylococcus epidermidis (assay: Antibacterial activity against methicillin-sensitive Staphylococcus epidermidis isolate cpu2089 after 18 to 20 hrs by agar dilution method).
Type: functional

Structure (SMILES) | MIC [µg/mL]
C=C[C@]1(C)C[C@@H](OC(=O)CSCc2csc(NC(=O)CN(CC)CC)n2)[C@]2(C)[C@H](C)CC[C@]3(CCC(=O)[C@H]32)[C@@H](C)[C@@H]1O | 0.25 (≈ 0.403 µM)
C=C[C@]1(C)C[C@@H](OC(=O)CSCc2csc(NC(=O)CN(CCC)CCC)n2)[C@]2(C)[C@H](C)CC[C@]3(CCC(=O)[C@H]32)[C@@H](C)[C@@H]1O | 0.5 (≈ 0.772 µM)

What follows are compounds tested on Staphylococcus epidermidis (assay: Antibacterial activity against methicillin-sensitive Staphylococcus epidermidis isolate cpu1561 after 18 to 20 hrs by agar dilution method).
Type: functional

Structure (SMILES) | MIC [µg/mL]
C=C[C@]1(C)C[C@@H](OC(=O)CSCc2csc(NC(=O)CN(CC)CC)n2)[C@]2(C)[C@H](C)CC[C@]3(CCC(=O)[C@H]32)[C@@H](C)[C@@H]1O | 0.25 (≈ 0.403 µM)
C=C[C@]1(C)C[C@@H](OC(=O)CSCc2csc(NC(=O)CN(CCC)CCC)n2)[C@]2(C)[C@H](C)CC[C@]3(CCC(=O)[C@H]32)[C@@H](C)[C@@H]1O | 4 (≈ 6.17 µM)

What follows are compounds tested on Staphylococcus epidermidis (assay: Antibacterial activity against methicillin-resistant Staphylococcus epidermidis isolate cpu2623 after 18 to 20 hrs by agar dilution method).
Type: functional

Structure (SMILES) | MIC [µg/mL]
C=C[C@]1(C)C[C@@H](OC(=O)CSCc2csc(NC(=O)CN(CC)CC)n2)[C@]2(C)[C@H](C)CC[C@]3(CCC(=O)[C@H]32)[C@@H](C)[C@@H]1O | 0.25 (≈ 0.403 µM)
C=C[C@]1(C)C[C@@H](OC(=O)CSCc2csc(NC(=O)CN(CCC)CCC)n2)[C@]2(C)[C@H](C)CC[C@]3(CCC(=O)[C@H]32)[C@@H](C)[C@@H]1O | 0.5 (≈ 0.772 µM)

These compounds were tested on Staphylococcus epidermidis (assay: Antibacterial activity against methicillin-resistant Staphylococcus epidermidis isolate cpu3889 after 18 to 20 hrs by agar dilution method).
Type: functional

Structure (SMILES) | MIC [µg/mL]
C=C[C@]1(C)C[C@@H](OC(=O)CSCc2csc(NC(=O)CN(CC)CC)n2)[C@]2(C)[C@H](C)CC[C@]3(CCC(=O)[C@H]32)[C@@H](C)[C@@H]1O | 2 (≈ 3.23 µM)
C=C[C@]1(C)C[C@@H](OC(=O)CSCc2csc(NC(=O)CN(CCC)CCC)n2)[C@]2(C)[C@H](C)CC[C@]3(CCC(=O)[C@H]32)[C@@H](C)[C@@H]1O | 2 (≈ 3.09 µM)

These compounds were tested on Staphylococcus epidermidis (assay: Antibacterial activity against methicillin-resistant Staphylococcus epidermidis isolate cpu3569 after 18 to 20 hrs by agar dilution method).
Type: functional

Structure (SMILES) | MIC [µg/mL]
C=C[C@]1(C)C[C@@H](OC(=O)CSCc2csc(NC(=O)CN(CC)CC)n2)[C@]2(C)[C@H](C)CC[C@]3(CCC(=O)[C@H]32)[C@@H](C)[C@@H]1O | 0.25 (≈ 0.403 µM)
C=C[C@]1(C)C[C@@H](OC(=O)CSCc2csc(NC(=O)CN(CCC)CCC)n2)[C@]2(C)[C@H](C)CC[C@]3(CCC(=O)[C@H]32)[C@@H](C)[C@@H]1O | 4 (≈ 6.17 µM)

The compounds below were run on Staphylococcus epidermidis (assay: Antibacterial activity against methicillin-resistant Staphylococcus epidermidis isolate cpu2736 after 18 to 20 hrs by agar dilution method).
Type: functional

Structure (SMILES) | MIC [µg/mL]
C=C[C@]1(C)C[C@@H](OC(=O)CSCc2csc(NC(=O)CN(CC)CC)n2)[C@]2(C)[C@H](C)CC[C@]3(CCC(=O)[C@H]32)[C@@H](C)[C@@H]1O | 0.25 (≈ 0.403 µM)
C=C[C@]1(C)C[C@@H](OC(=O)CSCc2csc(NC(=O)CN(CCC)CCC)n2)[C@]2(C)[C@H](C)CC[C@]3(CCC(=O)[C@H]32)[C@@H](C)[C@@H]1O | 2 (≈ 3.09 µM)
